Source: patent US10828326B2, “Compositions and methods for treating and preventing venom related poisoning” (priority 2015, dated 2020)

System: C. atrox venom
Assay: Isolated venom exposure to FeCl3, CORM-2 or iCORM-2, then thrombelastography in human plasma (Example VI)
Assay type: biochemical, Crotalus atrox
Details: in words
Experimental: C. atrox venom was obtained from the National Natural Toxins Research Center at Texas A&M University-Kingsville, Tex., USA. Venom was reconstituted in calcium-free phosphate buffered saline (PBS, Sigma-Aldrich, Saint Louis, Mo., USA), and stored at −80° C. Pooled human normal plasma anticoagulated with sodium citrate was obtained from George King Bio-Medical, Overland Park, Kans., USA. Ferric chloride (FeCl3, 99.9% pure), tricarbonyldichlororuthenium (II) dimer (CORM-2), and dimethyl sulfoxide (DMSO) were obtained from Sigma-Aldrich. The final concentrations of FeCl3 (dissolved in PBS) and CORM-2 (dissolved in DMSO) were 0-10 μM and 0-100 μM, respectively; these were the concentrations used in previous works involving the effects of modifying fibrinogen prior to venom exposure in plasma.
To increase the detection of effects of iron/CO on venom activity, the concentration of venom chosen for isolated exposure and for addition to plasma was twice the amount expected to eliminate coagulation based on previous work (see, Nielsen V G, Boyer L V. Iron and carbon monoxide attenuate degradation of plasmatic coagulation by Crotalus atrox venom. Blood Coagul Fibrinolysis. In press). A 1 ml quantity of a 200 μg/ml solution of venom in PBS was prepared for each condition subsequently presented. The conditions were: 1) 1% addition (v/v) of PBS and DMSO to PBS without venom; 2) 1% addition (v/v) of PBS and DMSO to PBS with venom; 3) 1% addition of FeCl3 and CORM-2 to PBS without venom; 4) 1% addition of FeCl3 and CORM-2 to PBS […]) 1% addition of FeCl3 and DMSO to PBS with venom; 6) 1% addition of CORM-2 to PBS with venom; and lastly, 7) 1% addition of PBS and iCORM-2 to PBS with venom. After 3 min of incubation at room temperature, 3.6 μl of solution from one of these conditions was placed into 326 μl of plasma and 10 μl of tissue factor reagent (0.1% final concentration in distilled water; Diagnostica Stago S.A.S., Asnieres sur Seine, France) in a disposable cup in a computer-controlled Thrombelastograph® hemostasis system (Model 5000, Haemonetics Inc., Braintree, Mass., USA). After test solution addition, 20 μl of 200 mM CaCl2 was immediately added to initiate clotting. Data were collected at 37° C. for 15 min. […] 2014; 25(8):801-805) were determined: time to maximum rate of thrombus generation (TMRTG): this is the time interval (min) observed prior to maximum speed of clot growth; maximum rate of thrombus generation (MRTG): this is the maximum velocity of clot growth observed (dynes/cm^2/sec); and total thrombus generation (TTG, dynes/cm^2), the final viscoelastic resistance observed after clot formation. […]

In the case of `[Cl][Fe]([Cl])[Cl]` [iron, ferric chloride], the “effects on C. atrox venom activity on plasmatic coagulation” value (isolated venom exposure) was “no appreciable effects” and the “coagulation kinetic parameters of plasma after addition of PBS with venom exposed to the agent” value (venom 2 μg/ml final, 10 μM FeCl3, 100 μM CORM-2 or iCORM-2) was “absence of coagulation not different from samples exposed to venom alone”.
